Assay results: patent US6764829B2, “Nucleoside hydrolase and nucleoside phosphorylase detection kits, dipsticks and substrates” (Albert Einstein College of Medicine of Yeshiva University, priority 1996, dated 2004)
Read-outs that look alike come from different tables or passages of the source.

Tests used:
GI-nucleoside hydrolase [1] = assay: Kinetic parameters with nitrophenylriboside and purine substrate (Table 1); format: biochemical, Crithidia fasciculata
Source text: (§1) In this Example kinetic parameters for different enzymes were compared using nitrophenylriboside or a purine substrate. […] The E. coli and bovine spleen enzymes tested were ineffective in hydrolysing the substrate. The striking ability of one of the protozoan parasite enzymes to hydrolyse the substrate provides the basis for an assay for the protozoan parasites (see Example 22).

[2] = molecular target: T1, Purine nucleoside phosphorylase (Bos taurus, UniProt P55859); assay: Kinetic parameters (phosphorolysis) with nitrophenylriboside and purine substrate (Table 1); format: biochemical, bovine; set-up: The E. coli and bovine spleen enzymes tested; from tissue; host or cells: bovine spleen
T1 sequence (P55859 1-289): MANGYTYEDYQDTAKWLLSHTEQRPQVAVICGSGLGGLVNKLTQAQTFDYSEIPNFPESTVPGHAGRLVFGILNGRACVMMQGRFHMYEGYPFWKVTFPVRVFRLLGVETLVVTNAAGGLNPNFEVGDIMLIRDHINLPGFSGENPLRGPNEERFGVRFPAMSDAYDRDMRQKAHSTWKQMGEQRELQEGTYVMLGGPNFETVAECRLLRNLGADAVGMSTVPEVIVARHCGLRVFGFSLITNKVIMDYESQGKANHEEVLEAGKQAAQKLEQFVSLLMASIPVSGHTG
Source text: as §1

[3] = test system: blood from mice infected with Trypanosoma cruzi; assay: Rate of hydrolysis of nitrophenyl riboside with control or infected mouse blood; format: biochemical; details: for rate of hydrolysis: 0.24 mM substrate, 50 mM HEPES pH 8.0, 30° C., 400 nm
Description: The utility of nitrophenylriboside as a substrate for detecting protozoan infections using the presence of nucleoside hydrolases was tested using blood from mice infected with Trypanosoma cruzi, the causitive agent of Chagas disease (Table 2). […] The values obtained from the assay from the infected mice were strikingly elevated above those of the uninfected controls.

AMP nucleosidase [4] = molecular target: T2, AMP nucleosidase (Escherichia coli, UniProt P0AE12); assay: Kinetic parameters with nitrophenylriboside 5-phosphate and purine substrate (Table 1); format: biochemical, E coli; details: summary of Table 1
Source text: as §1

IAG-nucleoside hydrolase [5] = molecular target: T3, IAG-nucleoside hydrolase (Trypanosoma brucei, UniProt Q57ZL6); assay: Kinetic parameters with nitrophenylriboside and purine substrate (Table 1); format: biochemical
T3 sequence (Q57ZL6 1-327): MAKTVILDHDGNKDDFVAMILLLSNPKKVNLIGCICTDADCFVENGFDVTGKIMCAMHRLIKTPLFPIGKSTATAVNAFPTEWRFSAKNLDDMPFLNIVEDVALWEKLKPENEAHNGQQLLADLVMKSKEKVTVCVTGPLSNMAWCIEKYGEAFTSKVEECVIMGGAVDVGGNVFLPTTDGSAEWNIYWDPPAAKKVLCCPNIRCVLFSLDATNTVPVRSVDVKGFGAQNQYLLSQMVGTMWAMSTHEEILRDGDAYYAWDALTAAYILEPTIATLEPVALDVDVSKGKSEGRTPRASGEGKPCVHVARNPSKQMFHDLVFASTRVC
Source text: as §1

IU-nucleoside hydrolase [6] = molecular target: T4, IU-nucleoside hydrolase (Crithidia fasciculata, UniProt Q27546); assay: as above; format: biochemical
T4 sequence (Q27546 1-315): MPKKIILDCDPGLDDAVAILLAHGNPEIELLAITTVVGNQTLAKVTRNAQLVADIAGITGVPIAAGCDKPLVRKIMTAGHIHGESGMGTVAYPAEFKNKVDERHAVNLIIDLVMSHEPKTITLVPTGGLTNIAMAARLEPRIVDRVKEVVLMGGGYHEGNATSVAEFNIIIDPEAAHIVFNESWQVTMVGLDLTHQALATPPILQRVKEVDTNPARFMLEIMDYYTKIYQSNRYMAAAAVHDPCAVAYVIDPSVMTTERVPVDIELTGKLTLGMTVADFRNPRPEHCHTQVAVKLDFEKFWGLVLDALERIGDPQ
Source text: as §1

[7] = test system: Giardia intestinalis (Portland 1 strain); assay: Hydrolysis of substrates by Giardia intestinalis supernatants; format: biochemical; details: 0.24 mM substrate, 50 mM HEPES pH 8
Description: Giardia intestinalis (Portland 1 strain) was grown for 2 days in TYI-33 medium supplemented with 5 mM arginine, harvested and washed. A suspension containing 2.91×10^8 cells of Giardia intestinalis in 1 mL of aqueous HEPES buffer (40 mM. pH 7) was mixed with 1 mL of aqueous HEPES buffer (40 mM, pH 7) containing 0.1 mM protease inhibitor E-64 and sonicated (Branson sonicator, duty cycle 40, output 2.5), for 2-3 min in ice. The suspension was then centrifuged in a Beckman microfuge for 10 mins at 4° C., and the supernatant decanted.
A second suspension of 2.91×10^8 cells of Giardia intestinalis in 1 mL of aqueous HEPES buffer (40 mM, pH 7) was mixed with 1 mL of 0.5% aqueous Triton X-100, left at 4° C. overnight, and the supernatant was decanted.
Aliquots (between 2 and 100 μL) of each of these supernatants were made up to a volume of 1 mL of water containing 50 mM HEPES buffer at pH 8, 0.24 mM 4-nitrophenyl β-D-ribofuranoside or 4-pyridyl β-D-ribofuranoside. The release of the aglycon was monitored by absorption spectrometry at 400 nm or 253 nm, respectively.
Protein was determined by Lowry method (ie Folin reaction).

IU-nucleoside hydrolase [8] = molecular target: T4, IU-nucleoside hydrolase; assay: Comparison of β-D-ribofuranoside substrates with IU-nucleoside hydrolase (Table 3); format: biochemical
Description: (§2) The enzymes used were highly purified samples from Crithidia fasciculata (IU-nucleoside hydrolase) and Trypanosoma brucei brucei (IAG-nucleoside hydrolase), available as stock solutions of approximately 20 mg protein/mL.
(§3) Each reaction was conducted in a quartz cuvette with a 1 cm path length, placed in the observation chamber of a UV spectrophotometer, and in a total reaction volume of 600 μL. The temperature was adjusted by use of a circulating water bath, set so that the cuvette temperature equilibrated to 30° C. in about 5 minutes.
(§4) The β-D-ribofuranoside substrates were dissolved in aqueous buffer: 50 mM CHES for reactions at pH 10, 50 mM HEPES for reactions at pH 8. […] For the remaining reactions catalysed by IAG hydrolase, a single substrate concentration of between 100 and 300 μM was used.
(§5) The absorbance of each reaction mixture was monitored at or near the absorption maximum for the phenolic aglycon (as shown in Table 3). Monitoring began 5-10 minutes before the enzyme was added to determine if the substrate was stable under the reaction conditions.
(§6) Data were fitted to the Michaelis-Menton equation using kaleidagraph, and the resulting kinetic parameters along with other relevant data are summarized in Table 3.

T. vaginalis = assay: Hydrolysis of substrates by T. vaginalis extract; format: biochemical; details: Triton X-100 extract; determined as in Example 24
Description: T. vaginalis was grown for 2 days in TYM medium, harvested, and washed. […] The ability of the extract to hydrolyse substrates was determined as in Example 24. For 4-nitrophenyl β-D-ribofuranoside, the activity was 165 nmoles.min^−1 per 10^8 cells, corresponding to an activity for the enzyme of 9 nmoles.min^−1.(mg protein)^−1. For 4-pyridyl β-D-ribofuranoside, the activity was 74 nmoles.min^−1 per […] corresponding to an activity for the enzyme of 4 nmoles.min^−1.(mg protein)^−1.

IAG-nucleoside hydrolase [9] = molecular target: T3, IAG-nucleoside hydrolase; assay: Comparison of β-D-ribofuranoside substrates with IAG-nucleoside hydrolase (Table 3); format: biochemical; details: for IAG NH rate: at 200 μM substrate
Description: as §2, §3, §4, §5, §6

IU-nucleoside hydrolase [10] = molecular target: T4, IU-nucleoside hydrolase; details: purine substrate; cited from earlier work
IAG-nucleoside hydrolase [11] = molecular target: T3, IAG-nucleoside hydrolase; details: purine substrate; cited from earlier work
[12] = molecular target: T1, Purine nucleoside phosphorylase; set-up: bovine spleen enzymes tested; from tissue; host or cells: bovine spleen; details: purine substrate; cited from earlier work
[13] = Stability of substrate under the reaction conditions before enzyme was added; format: physicochemical; details: pH 10, 30° C., monitored 5-10 minutes before the enzyme was added
Description: as §5

GI-nucleoside hydrolase [14] = details: purine substrate; cited from earlier work
AMP nucleosidase [15] = molecular target: T2, AMP nucleosidase; details: purine substrate; cited from earlier work
[16] = nitrophenylriboside as substrate, pH 8.0 in 50 mM HEPES, 30° C.
[17] = kcat/Km for nitrophenylriboside to that for inosine
[18] = listed as 2-(5-nitropyridyl) riboside

T2 sequence (P0AE12 whole entry): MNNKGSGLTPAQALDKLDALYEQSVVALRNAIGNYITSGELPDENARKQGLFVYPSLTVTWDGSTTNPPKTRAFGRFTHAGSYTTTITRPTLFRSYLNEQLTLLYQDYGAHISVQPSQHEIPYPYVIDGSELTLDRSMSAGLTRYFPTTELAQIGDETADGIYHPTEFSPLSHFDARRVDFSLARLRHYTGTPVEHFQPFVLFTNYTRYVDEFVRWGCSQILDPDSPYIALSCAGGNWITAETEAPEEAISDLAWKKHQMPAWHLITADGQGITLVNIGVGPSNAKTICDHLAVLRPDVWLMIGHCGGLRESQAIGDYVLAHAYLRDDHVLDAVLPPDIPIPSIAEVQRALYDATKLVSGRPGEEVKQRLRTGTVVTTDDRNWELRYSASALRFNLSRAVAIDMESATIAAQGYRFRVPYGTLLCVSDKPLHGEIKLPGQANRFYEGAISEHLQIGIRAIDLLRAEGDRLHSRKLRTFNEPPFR

O=[N+]([O-])c1ccc(O[C@@H]2O[C@H](CO)[C@@H](O)[C@H]2O)cc1 [Example 1, p-nitrophenyl β-D-ribofuranoside]
kcat/Km ratio (GI-nucleoside hydrolase [1]; kcat/Km for nitrophenylriboside to that for guanosine): 4 × 10^−5
Km (GI-nucleoside hydrolase [1]; [16]): 468 µM
kcat (GI-nucleoside hydrolase [1]; [16]): 0.07 s⁻¹
kcat/Km ratio [2, 17]: 1 × 10^−6
substrate quality in words ([2]; summary of Table 1): ineffective
detection of nucleoside hydrolase in words ([3]; blood lysate prepared from one microliter of infected blood): readily detects the presence of the nucleoside hydrolase
rate of hydrolysis ([3]; mouse blood infected, T cruzi var Brazil): 4.6 ± 0.5 (3) pmol/min/mg
rate of hydrolysis ([3]; mouse blood infected, T cruzi var Tulahuen): 3.9 ± 0.5 (4) pmol/min/mg
rate of hydrolysis ([3]; uninfected control mouse blood): 0.7 ± 0.8 (11) pmol/min/mg
substrate quality in words (AMP nucleosidase [4]): ineffective
kcat/Km ratio (IAG-nucleoside hydrolase [5]; [17]): 8 × 10^−4
substrate quality in words (IAG-nucleoside hydrolase [5]; summary of Table 1): relatively poor
kcat/Km ratio (IU-nucleoside hydrolase [6]; [17]): 54
substrate quality in words (IU-nucleoside hydrolase [6]; summary of Table 1): good substrate
activity per cells [7]: 470 nmoles.min^−1 per 10^8 cells
activity for the enzyme ([7]; protein by Lowry method): 70 nmoles.min^−1.(mg protein)^−1
substrate quality in words (IU-nucleoside hydrolase [8]): good substrates
substrate quality in words (IU-nucleoside hydrolase [8]; listed as p-nitrophenylriboside): particularly good substrate
activity for the enzyme (T. vaginalis): 9 nmoles.min^−1.(mg protein)^−1
activity per cells (T. vaginalis): 165 nmoles.min^−1 per 10^8 cells
IAG NH rate (IAG-nucleoside hydrolase [9]; pH 10.0): 0.05 min⁻¹

OC[C@H]1O[C@@H](n2cnc3c(O)ncnc32)[C@H](O)[C@@H]1O [inosine]
kcat (IU-nucleoside hydrolase [10]): 28 s⁻¹
Km (IAG-nucleoside hydrolase [11]): 18 µM
kcat (IAG-nucleoside hydrolase [11]): 34 s⁻¹
Km [12]: 19 µM
kcat [12]: 12 s⁻¹

O=[N+]([O-])c1ccc(O[C@@H]2O[C@H](CO)[C@@H](O)[C@H]2O)nc1 [Example 13, 2-(5-nitropyridyl) β-D-ribofuranoside]
hydrolysis in the absence of enzyme [13]: hydrolysis observed in the absence of enzyme
substrate quality in words (IU-nucleoside hydrolase [8]): good substrates
IU NH kcat (IU-nucleoside hydrolase [8]; At pH 10, 30° C.): 100 s⁻¹
Km (IU-nucleoside hydrolase [8]; At pH 10, 30° C., read-out: IU NH Km): 122 µM
substrate quality in words (IU-nucleoside hydrolase [8]; [18]): lower activity
substrate quality in words (IAG-nucleoside hydrolase [9]): good substrates
IAG NH rate (IAG-nucleoside hydrolase [9]; pH 8.0): >100 min⁻¹
IAG NH rate (IAG-nucleoside hydrolase [9]; pH 10.0): >100 min⁻¹
substrate quality in words (IAG-nucleoside hydrolase [9]; [18]): substantially greater activity

Nc1nc2c(ncn2[C@@H]2O[C@H](CO)[C@@H](O)[C@H]2O)c(=O)[nH]1 [guanosine]
Km (GI-nucleoside hydrolase [14]): 77 µM
kcat (GI-nucleoside hydrolase [14]): 231 s⁻¹

Nc1ncnc2c1ncn2[C@@H]1O[C@H](COP(=O)(O)O)[C@@H](O)[C@H]1O [AMP]
Km (AMP nucleosidase [15]): 150 µM
kcat (AMP nucleosidase [15]): 27 s⁻¹
